Laboratory results from PMC6063907, “Metal-cation regulation of enzyme dynamics is a key factor influencing the activity of S-adenosyl-L-homocysteine hydrolase from Pseudomonas aeruginosa” (Scientific Reports, 2018).
Read-outs that look alike come from different tables or passages of the source.

Columns and labels:
wild type (WT) PaSAHase [1] = target: T1, wild type (WT) PaSAHase (Pseudomonas aeruginosa, UniProt Q9I685); assay type: biochemical; conditions: WT enzyme; for kcat/KM: 100 mM MeCl, 25 mM HEPES·MeOH pH 7.5, substrate SAH, 293 K, ± SEM
T1 construct: His-tag with TEV site (from vector pMCSG57) (N, cleaved yes); made in house; host or cells: E. coli BL21-CodonPlus(DE3)-RIPL
Method: (§1) Assays for PaSAHase activity in the hydrolytic direction were carried out spectrophotometrically and the rate of L-homocysteine (Hcy) formation was measured by monitoring its reaction with 5,5′-dithiobis(2-nitrobenzoic acid) (DTNB)[21]. Assays were performed in 3 mL volume in a buffer containing 100 mM MeCl (where Me^+ corresponds to Li^+, Na^+, K^+, Rb^+, or Cs^+ ion) and 25 mM HEPES·MeOH pH 7.5, or a buffer containing 100 mM Tris·HCl pH 7.5. For the Q65A mutein, the experiments were conducted in a buffer containing 100 mM KCl and 25 mM HEPES·KOH pH 7.5. The buffers were supplemented with six units of adenosine deaminase, 100 μM DTNB, and 0.32 μM of PaSAHase or its mutein. The reaction was initiated by the addition of S-adenosyl-L-homocysteine (SAH) at a final concentration from 2.5 to 200 μM. The conversion of Hcy to Hcy-TNB was carried out at 293 K. The reaction progress was measured for one minute and monitored at 412 nm using a U-3900H spectrophotometer (Hitachi). Initial velocity parameters were estimated from the linear region of the recorded curve.
(§2) For the inhibition study, PaSAHase (0.35 μM) in a buffer containing 100 mM KCl and 25 mM Tris·HCl pH 7.5 was incubated with Zn^2+ at different concentrations, ranging from 0.165 to 20 μM. The reaction was initiated by the addition of SAH at a final concentration of 85 μM. The enzymatic activity was followed in the hydrolytic direction by monitoring homocysteine formation via its reaction with DNTB to determine the IC50 constant. For the sample without the addition of Zn^2+ ions, 100% activity was assigned. All measurements were performed in duplicates. The experimental data were analyzed with the GraFit 7.0 software (Erithacus) to obtain the kinetic parameters of the enzymatic reactions: substrate affinity (KM), activity (Vmax), as well as catalytic rate (kcat) or IC50 value for inhibition. The IC50-to-Ki converter[61] was applied to calculate the inhibition constant (Ki) for Zn^2+ ions using the noncompetitive model of inhibition.

Q65A PaSAHase [2] = target: T2, Q65A PaSAHase (Pseudomonas aeruginosa, UniProt Q9I685, Q65A); assay type: biochemical; conditions: Q65A mutein, 100 mM KCl, 25 mM HEPES·KOH pH 7.5, substrate SAH, 293 K; ± SEM
T2 construct: His-tag with TEV site (from vector pMCSG57) (N, cleaved yes); made in house; host or cells: E. coli BL21-CodonPlus(DE3)-RIPL
T2 sequence (Q9I685 whole entry Q65A): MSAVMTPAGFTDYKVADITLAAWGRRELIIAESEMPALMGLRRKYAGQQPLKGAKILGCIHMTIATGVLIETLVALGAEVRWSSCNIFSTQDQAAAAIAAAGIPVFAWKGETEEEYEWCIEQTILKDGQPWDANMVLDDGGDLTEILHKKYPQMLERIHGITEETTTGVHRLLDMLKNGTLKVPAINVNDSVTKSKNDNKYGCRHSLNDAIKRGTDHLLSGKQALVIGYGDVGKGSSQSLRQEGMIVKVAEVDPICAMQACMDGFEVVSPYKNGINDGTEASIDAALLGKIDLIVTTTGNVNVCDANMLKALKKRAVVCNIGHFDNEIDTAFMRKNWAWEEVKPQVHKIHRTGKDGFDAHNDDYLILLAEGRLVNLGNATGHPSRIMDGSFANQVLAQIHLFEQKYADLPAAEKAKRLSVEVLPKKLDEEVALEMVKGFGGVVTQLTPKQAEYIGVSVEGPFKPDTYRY
Method: as §1, §2

PaSAHase [3] = target: T3, PaSAHase (Pseudomonas aeruginosa, UniProt Q9I685); assay: ITC titration of PaSAHase with metal ions (Zn^2+, K^+); assay type: binding
T3 construct: His-tag with TEV site (from vector pMCSG57) (N, cleaved yes); made in house; host or cells: E. coli BL21-CodonPlus(DE3)-RIPL
T3 sequence (Q9I685 1-469): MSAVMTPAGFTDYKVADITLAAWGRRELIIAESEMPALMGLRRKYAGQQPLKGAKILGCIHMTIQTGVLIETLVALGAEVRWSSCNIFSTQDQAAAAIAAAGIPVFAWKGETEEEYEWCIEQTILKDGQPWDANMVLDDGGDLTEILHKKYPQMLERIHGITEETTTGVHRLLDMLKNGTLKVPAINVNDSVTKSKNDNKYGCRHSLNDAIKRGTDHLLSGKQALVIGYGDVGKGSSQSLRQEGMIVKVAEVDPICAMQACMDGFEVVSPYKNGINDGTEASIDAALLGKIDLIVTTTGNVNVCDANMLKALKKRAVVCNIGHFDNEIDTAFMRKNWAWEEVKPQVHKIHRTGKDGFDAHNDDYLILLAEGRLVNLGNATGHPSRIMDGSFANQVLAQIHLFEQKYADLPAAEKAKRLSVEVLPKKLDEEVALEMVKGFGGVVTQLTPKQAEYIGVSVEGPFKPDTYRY
Method: (§3) ITC measurements were performed at 293 K using a MicroCal iTC200 calorimeter (GE Healthcare). For the adenosine binding studies, the wild type protein was dialyzed against a buffer containing 100 mM MeCl and 25 mM HEPES·MeOH pH 7.5, or an alkali-cation-free buffer containing 100 mM Tris·HCl pH 7.5. The experiment for the Q65A mutein was conducted in a buffer containing 100 mM KCl and 25 mM HEPES·KOH pH 7.5. The final protein concentrations were in the range of 100–120 µM. Adenosine was dissolved in the dialysis buffers to the concentrations of 0.6 to 1.0 mM. The K^+ ion binding study was conducted in 50 mM Tris·HCl pH 7.5 at PaSAHase concentration of 70 μM. The protein was titrated with 1 mM KCl in 50 mM Tris·HCl pH 7.5. The Zn^2+ ion binding study was conducted in a buffer containing 100 mM KCl and 50 mM Tris·HCl pH 7.5 at PaSAHase concentration of 45 μM. The protein was titrated with 2 mM ZnCl2. In all ITC experiments the ligand was injected to the protein solution (300 μL) in 2 µL aliquots until saturation was observed. The protein concentrations were estimated by the Bradford method and are presented for a single PaSAHase subunit. The raw ITC data were analyzed with the ORIGIN 7.0 software (OriginLab) to obtain the thermodynamic parameters of the complexation reactions: stoichiometry (N), dissociation constant (Kd), as well as changes in enthalpy (ΔH) and entropy (ΔS). For sigmoidal titration curves, the one set of sites model was fitted and N was obtained from the experiment. For hyperbolic curves, for which the determination of N is impossible, N was fixed while fitting the same model. All measurements were performed in duplicates.

PaSAHase [4] = target: T3, PaSAHase; assay: Time course of PaSAHase inactivation by 2′-deoxyadenosine (NADH formation, spectrofluorimetric); assay type: biochemical
Method: The measurements were performed at 293 K using an F-7000 spectrofluorotometer (Hitachi) in the volume of 1 mL. Irreversible formation of the reduced form of the cofactor (NADH) was monitored spectrofluorometrically by excitation at 340 nm and measurement of emission at 460 nm, as described previously. The influence of K^+ and Rb^+ ions on the time-dependent inactivation of the enzyme was carried out for 15 μM PaSAHase in a buffer containing 100 mM KCl or RbCl, 25 mM HEPES·KOH or HEPES·RbOH pH 7.5, and 1 mM TCEP·HCl. In the first experiment, the reaction was initiated by the addition of 2′-deoxyadenosine to the final concentration of 5 mM. In the second experiment, the enzyme was incubated for 2 hours with 100 μM adenosine and subsequently 2′-deoxyadenosine was added at a final concentration of 200 μM. After one minute the reaction was monitored for 4000 seconds (first experiment) or until the intensity of fluorescence emission reached a plateau (second experiment). An analogous experiment was carried out to analyze the influence of Zn^2+ cations on the enzyme. […] The cofactor conversion reaction was initiated by the addition of 2′-deoxyadenosine to the final concentration of 5 mM and after one minute was monitored for 5000 seconds.

PaSAHase [5] = target: T3, PaSAHase; assay: Inhibition of PaSAHase by Zn^2+ ions (DTNB assay); assay type: biochemical; conditions: 100 mM KCl; for Ki: calculated from IC50 with IC50-to-Ki converter, noncompetitive model, 25 mM Tris·HCl pH 7.5, SAH 85 μM, enzyme 0.35 μM, read-out: inhibitory constant Ki
Method: as §2

Q65A PaSAHase [6] = target: T2, Q65A PaSAHase; assay: ITC titration of Q65A PaSAHase with adenosine; assay type: binding
Method: as §3

wild type (WT) PaSAHase [7] = target: T1, wild type (WT) PaSAHase; assay: ITC titration of wild type PaSAHase with adenosine; assay type: binding; conditions: for stoichiometry (N) / ΔH / ΔS / Kd: pH 7.5, 293 K; for Kd: dissociation constant Kd
Method: as §3

human placental SAHase = target: human placental SAHase; design: method as in PMID 17892301; conditions: read-out: inhibition constant; cited from earlier work
[8] = target: the molecule itself; assay: SEC; Superdex 200 gel filtration in buffer D (100 mM KCl, 25 mM HEPES-KOH pH 7.5, 1 mM TCEP-HCl), after reconstitution with NAD+
[9] = Q65A, 100 mM K^+, pH 7.5, 293 K

For `[Cs+]` [Cs^+], the kcat/KM (wild type (WT) PaSAHase [1]) was 6668 ± 333 M⁻¹ s⁻¹.

In the case of `[K+]` [K^+], the kcat/KM (Q65A PaSAHase [2]) is reported as 5322 ± 358 M⁻¹ s⁻¹, the kcat/KM (wild type (WT) PaSAHase [1]) is reported as 72502 ± 4858 M⁻¹ s⁻¹ and the “heat effect of ITC titration of ligand- and alkali-metal-free PaSAHase” value (PaSAHase [3]; 50 mM Tris·HCl pH 7.5, 70 μM PaSAHase, titrated with 1 mM KCl) is reported as “No effect other than K^+ dilution heat”.

Molecule `[Li+]` [Li^+] has a kcat/KM (wild type (WT) PaSAHase [1]) of 731 ± 143 M⁻¹ s⁻¹.

Molecule `[Na+]` [Na^+] has a kcat/KM (wild type (WT) PaSAHase [1]) of 8467 ± 940 M⁻¹ s⁻¹.

For `[Rb+]` [Rb^+], the kcat/KM (wild type (WT) PaSAHase [1]) was 3568 ± 237 M⁻¹ s⁻¹, the mode of inhibition (wild type (WT) PaSAHase [1]; 100 mM RbCl, kinetics with SAH) was “noncompetitive inhibitor” and the “drop of kcat compared with K^+” value (wild type (WT) PaSAHase [1]; relative to kcat in the presence of K^+) was roughly 33 fold. For the same molecule, the “rate of NADH formation compared with K^+” value (PaSAHase [4]; enzyme first incubated with 100 μM adenosine, then 200 μM 2′-deoxyadenosine added, 100 mM RbCl) was “significantly lower”.

With `[Zn+2]` [Zn^2+] the mode of inhibition (PaSAHase [5]; 25 mM Tris·HCl pH 7.5) was “very strong noncompetitive inhibitor”, the Ki (PaSAHase [5]; listed as zinc) was roughly 15 nM and the Ki (PaSAHase [5]) was 15 nM. For the same molecule, the “rate of NADH formation” value (PaSAHase [4]; 100 mM KCl, enzyme incubated with adenosine (200 μM) and ZnCl2 (1, 5 or 10 μM), then 5 mM 2′-deoxyadenosine) was “gradually decreased with increasing Zn^2+ concentration”, the “stoichiometry of protein:Zn^2+ binding, per one subunit” value (PaSAHase [3]; 100 mM KCl, 50 mM Tris·HCl pH 7.5, 45 μM enzyme, 2 mM ZnCl2, 293 K) was 0.90 ± 0.06 and the Kd (PaSAHase [3]; 100 mM KCl, 50 mM Tris·HCl pH 7.5, 45 μM enzyme, 2 mM ZnCl2, 293 K, read-out: apparent binding constant Kd) was 12700 ± 2900 nM.

With `Nc1ncnc2c1ncn2[C@@H]1O[C@H](CO)[C@@H](O)[C@H]1O` [adenosine] the Kd (Q65A PaSAHase [6]) was 7300 ± 400 nM, the “stoichiometry (N)” value (Q65A PaSAHase [6]; [9]) was 0.236 ± 0.004 and the ΔH (Q65A PaSAHase [6]; [9]) was -7.447 ± 0.167 kcal/mol. The “stoichiometry (N)” value (wild type (WT) PaSAHase [7]; 100 mM Cs^+) was 0.94 ± 0.02, the ΔH (wild type (WT) PaSAHase [7]; 100 mM Cs^+) was -4.174 ± 0.115 kcal/mol and the ΔS (wild type (WT) PaSAHase [7]; 100 mM Cs^+) was 10.1 cal/mol/°. The “stoichiometry (N)” value (wild type (WT) PaSAHase [7]; 100 mM K^+) was 0.80 ± 0.01, the ΔH (wild type (WT) PaSAHase [7]; 100 mM K^+) was -9.665 ± 0.237 kcal/mol and the ΔS (wild type (WT) PaSAHase [7]; 100 mM K^+) was −5.9 cal/mol/°. For the same molecule, the “stoichiometry (N)” value (wild type (WT) PaSAHase [7]; 100 mM Na^+) was 0.97 ± 0.02, the ΔH (wild type (WT) PaSAHase [7]; 100 mM Na^+) was -3.891 ± 0.114 kcal/mol and the ΔS (wild type (WT) PaSAHase [7]; 100 mM Na^+) was 9.8 cal/mol/°. For the same molecule, the “stoichiometry (N)” value (wild type (WT) PaSAHase [7]; 100 mM Rb^+) was 0.84 ± 0.01, the ΔH (wild type (WT) PaSAHase [7]; 100 mM Rb^+) was -8.935 ± 0.137 kcal/mol and the ΔS (wild type (WT) PaSAHase [7]; 100 mM Rb^+) was −4.2 cal/mol/°. The Kd (wild type (WT) PaSAHase [7]; 100 mM Cs^+) was 4700 ± 600 nM, the Kd (wild type (WT) PaSAHase [7]; 100 mM K^+) was 1200 ± 200 nM and the Kd (wild type (WT) PaSAHase [7]; 100 mM Na^+) was 8800 ± 1000 nM. For the same molecule, the Kd (wild type (WT) PaSAHase [7]; 100 mM Rb^+) was 1800 ± 200 nM and the “heat effect of ITC titration” value (wild type (WT) PaSAHase [7]; in the absence of any alkali metals or the presence of Li^+ ions) was “immeasurably small”.

For `[Cu+2]` [copper], the Ki (human placental SAHase) is given as roughly 25 nM.

B1: S-adenosyl-L-homocysteine hydrolase from Pseudomonas aeruginosa (enzyme, Pseudomonas aeruginosa PAO1)
chain: SNAMSAVMTPAGFTDYKVADITLAAWGRRELIIAESEMPALMGLRRKYAGQQPLKGAKILGCIHMTIQTGVLIETLVALGAEVRWSSCNIFSTQDQAAAAIAAAGIPVFAWKGETEEEYEWCIEQTILKDGQPWDANMVLDDGGDLTEILHKKYPQMLERIHGITEETTTGVHRLLDMLKNGTLKVPAINVNDSVTKSKNDNKYGCRHSLNDAIKRGTDHLLSGKQALVIGYGDVGKGSSQSLRQEGMIVKVAEVDPICAMQACMDGFEVVSPYKNGINDGTEASIDAALLGKIDLIVTTTGNVNVCDANMLKALKKRAVVCNIGHFDNEIDTAFMRKNWAWEEVKPQVHKIHRTGKDGFDAHNDDYLILLAEGRLVNLGNATGHPSRIMDGSFANQVLAQIHLFEQKYADLPAAEKAKRLSVEVLPKKLDEEVALEMVKGFGGVVTQLTPKQAEYIGVSVEGPFKPDTYRY
notes: short tripeptide (SNA-) cloning artifact that extends the N-terminus of the purified protein; S-adenosyl-L-homocysteine hydrolase, Pseudomonas aeruginosa PAO1; about 53 kDa by SDS-PAGE; Batches were either Zn2+-containing or freed of Zn2+ with TPEN; The vector pMCSG57 is named, the tag itself is not; also called PaSAHase; SAHase
For B1, the “stoichiometry N” value [8] was 4.
